These results are taken from ChEMBL document CHEMBL5226335, “Efforts towards the inhibitor design for New Delhi metallo-beta-lactamase (NDM-1)” (Eur J Med Chem, 2021).

A short description of test [1]: Binding affinity to NDM-1 (unknown origin) assessed as inhibition constant. More on the design: species or system Bacteria.
A short description of test [2]: Inhibition of NDM-1 (unknown origin). More on the design: species or system Bacteria.
The next test has as its system Klebsiella pneumoniae. Briefly: Antibacterial activity against Klebsiella pneumoniae N11-2218 expressing NDM-1infected in mouse assessed as survival rate at 10 mg/kg,sc measured after 5 days. The format is functional. The following applies: N11-2218, 120 h, time 5 day.
A further test deals with Escherichia coli. The test is described as follows: Antibacterial activity against Escherichia coli expressing NDM-1. The format is functional.

Molecules are shown by their SMILES. Values after ≈ are worked out from the molar mass of the structure shown.

Regarding `O=C(CSc1n[nH]c(-c2ccncc2)n1)Nc1ccccc1`, the Ki (in general, the dissociation constant of the complex between target and ligand, obtained from inhibition or displacement) in test [1] was determined as 0.42 µM. As for `COc1cccc2sc(Nc3nnc(-c4cccs4)o3)nc12`, half-maximal inhibition in test [2] (IC50) required 0.692 µM. Regarding `O=C(CSc1nnc(-c2ccncc2)s1)Nc1ccccc1`, the Ki in test [1] came to 1.2 µM. Regarding `O=C(O)c1nccn1Cc1ccc(O)cc1`, in test [2], the IC50 (usually the midpoint of a concentration-inhibition curve) was found to be 118 µM.

As to `O=C(O)c1nccn1Cc1ccccc1`, it took 63.4 µM to reach half-maximal inhibition in test [2] (IC50). With `O=C(CSc1nnc(-c2ccccc2O)[nH]1)Nc1ccccc1`, the inhibition constant (Ki) in test [1] stood at 0.43 µM. On to `Nc1cccc(-c2cc(C(=O)O)nc(C(=O)O)c2)c1`, for which half-maximal inhibition in test [2] (IC50) required 0.08 µM.

Regarding `O=C(Nc1cccc(-c2cc(C(=O)O)nc(C(=O)O)c2)c1)c1ccccc1`, the IC50 in test [2] was 0.13 µM. This IC50 lies about 1.6-fold higher than the previous one. Turning to `N[C@H](CN[C@H](CN[C@@H](CC(=O)O)C(=O)O)C(=O)O)C(=O)O`, the survival at 10 mg/kg in the test on Klebsiella pneumoniae was 95%. As to `CN(C)c1ccc(-c2cc(C(=O)O)nc(C(=O)O)c2)cc1`, in test [2], the IC50 stood at 0.19 µM. This lies in the sub-micromolar range.

In test [2], `O=C(O)c1cc(-c2ccccc2O)cc(C(=O)O)n1` had a half-maximal inhibitory concentration (IC50) of 0.13 µM. The same measure, in the same setting: the same measure for `O=c1c2ccccc2sn1-c1ccccc1`: 0.16 µM. For the compound `O=C(O)c1ncsc1NS(=O)(=O)c1cccnc1`, the Ki in test [1] turned out to be 0.29 µM. On the same count and under the same terms, next, `O=C(NOC(=O)Oc1ccccc1)OCc1ccccc1`: 140 µM.

Take `O=C(O)[C@@H]1CS[C@H]2CS[C@H](CS)N21`: the concentration for half-maximal inhibition (IC50) in test [2] came out at 23 µM. On the same count and under the same terms, the same measure for `CCC/C(=N\Nc1cccc2cccnc12)C(=O)O`: 68.2 µM.

On to `CC1(C)S[C@@H]2CS[C@@H](CS)N2[C@H]1C(=O)O`, for which the half-maximal inhibitory concentration (IC50) in test [2] was 180 µM. Against the preceding compound, the IC50 is about 2.6-fold higher. Still for that read-out and setting: the same measure for `CC1(C)S[C@H]2CS[C@H](CS)N2[C@@H]1C(=O)O`: 200 µM; for `NCc1ccc(Cn2ccnc2C(=O)O)cc1`: 165 µM; for `O=C(O)[C@H]1CS[C@@H]2CS[C@@H](CS)N12`: 109 µM. The same measure, in the same setting: next, `CCCCC(=O)NC(Cc1c[nH]c2ccccc12)C(=O)SCC(=O)O` (stereo not drawn): 54.9 µM. For `Cc1cc(-c2ccccc2)c(C(=O)O)[nH]1`, the negative-log IC50 (pIC50) (usually the negative decadic logarithm of the IC50, by convention in mol/L) in test [2] worked out at 4.5.

As to `O=C(CSc1nnc(-c2ccccc2O)s1)Nc1nc2ccccc2s1`, the inhibitory constant (Ki) in test [1] worked out at 0.81 µM. Consider `CC1=C(c2ccc(Cl)cc2)N(/C(C)=N/c2ccc(Br)cc2)C(c2ccc(Cl)cc2)N1c1ccc(Br)cc1` (stereo not drawn), for which the 50% inhibitory concentration (IC50) in test [2] was found to be 600 µM.

For `CCCCC(=O)NC(Cc1ccccc1)C(=O)SCC(=O)O` (stereo not drawn), in test [2], half-maximal inhibition (IC50) required 28.6 µM. Compound `CSCCC(NC(=O)Cc1ccccc1)C(=O)SCC(=O)O` (stereo not drawn) displayed a half-inhibitory concentration (IC50) in test [2] of 19.7 µM. This IC50 and that of the compound before are within 1.5-fold of each other. The same measure, in the same setting: the same measure for `O=C(O)c1ccc(N(Cc2ccccc2)C(=O)c2cccs2)c(CP(=O)(O)O)n1`: 0.306 µM; for `CC(=O)NC1=C(S)/C(=C\S)NC1=O`: 0.11 µM; for `O=C(O)CSC(=O)C(Cc1c[nH]c2ccccc12)NC(=O)Cc1ccc(-c2ccccc2)cc1` (stereo not drawn): 16.6 µM.

On to `CCCCC(=O)NC(CCSC)C(=O)SCC(=O)O` (stereo not drawn), for which the 50% inhibitory concentration (IC50) in test [2] was 37.7 µM. As to `O=C(O)CSC(=O)C(Cc1ccccc1)NC(=O)Cc1ccc(-c2ccccc2)cc1` (stereo not drawn), 44 µM corresponded to half-maximal inhibition in test [2] (IC50). This IC50 and that of the compound before are within 1.5-fold of each other. In turn, `C[C@@H](CS)C(=O)N[C@@H](C(=O)O)c1ccc2cc[nH]c2c1` registered a half-maximal inhibitory concentration (IC50) in test [2] of 64.8 µM. `CC(=O)C1CSC(C(=O)O)N1` (stereo not drawn): the IC50 in test [2] is 3.45 µM.

Consider `O=C(CSc1nnc(-c2ccccc2O)[nH]1)Nc1nc2ccccc2s1`, for which the inhibition constant (Ki) in test [1] came to 0.35 µM. In test [2], `O=C(O)c1ccc(O)c(CP(=O)(O)O)n1` yielded an IC50 of 0.322 µM. This counts as sub-micromolar. Still for that read-out and setting: next, `Oc1c(C(Nc2ccccn2)c2cccs2)ccc2cccnc12` (stereo not drawn): 0.463 µM; `O=C(O)CSC(=O)C(Cc1c[nH]c2ccccc12)NC(=O)Cc1ccccc1` (stereo not drawn): 27.9 µM; `O=C(Cc1ccccc1)N[C@@H]1C(=O)N2C(C(=O)O)=C(CSc3nnc(-c4ccc(-n5[se]c6ccccc6c5=O)cc4)[nH]3)CSC12` (stereo partly drawn): 2.93 µM. In the case of `O=C(CSc1nnc(-c2ccccc2O)o1)Nc1ccccc1`, the inhibition constant Ki in test [1] was 0.6 µM. Consider `Cc1cccc(-c2cc[nH]c2C(=O)O)c1`, for which the negative logarithm of the IC50 (pIC50) in test [2] stood at 4.2. Consider `CCCC/C(=N\Nc1cccc2ccccc12)C(=O)O`, for which the IC50 in test [2] came to 28.1 µM. In turn, `O=C(O)c1cccc(CP(=O)(O)O)n1` showed a half-maximal inhibitory concentration (IC50) in test [2] of 0.374 µM. The same measure, in the same setting: the same measure for `Oc1c(C(Nc2ccc(F)cc2)c2cncs2)ccc2cccnc12` (stereo not drawn): 10.3 µM. Regarding `O=C(CSc1nnc(-c2ccccc2O)s1)Nc1ccccc1`, in test [1], the Ki is 0.64 µM. Same read-out and setting: the same measure for `O=C(CSc1nnc(-c2ccncc2)o1)Nc1ccccc1`: 0.23 µM. As to `CCCC/C(=N\Nc1cccc2cccnc12)C(=O)O`, the IC50 in test [2] was determined as 82.3 µM. On the same count and under the same terms, next, `CC1=C(c2ccccc2)N(/C(C)=N/c2ccc(Cl)cc2)C(c2ccccc2)N1c1ccc(Cl)cc1` (stereo not drawn): 900 µM; `CC1=C(c2ccc(Cl)cc2)N(/C(C)=N/c2ccc(Cl)cc2)C(c2ccc(Cl)cc2)N1c1ccc(Br)cc1` (stereo not drawn): 400 µM.

`C[C@H](CS)C(=O)N[C@@H](C(=O)O)c1ccc2cc[nH]c2c1`: the IC50 in test [2] is 24.8 µM. This IC50 lies about 16-fold lower than the previous one. Take `O=Cc1coc2ccccc2c1=O`: the Ki in test [1] turned out to be 0.58 µM. For the compound `O=C(O)C(=O)CBr` [BROMOPYRUVATE], the half-maximal inhibitory concentration (IC50) in test [2] was determined as 2.57 µM. Compound `CC(C)c1cc2c(c(O)c1O)[C@@]1(C(=O)O)CCCC(C)(C)[C@@H]1CC2` [CARNOSIC ACID] registered an IC50 in test [2] of 27.1 µM. Regarding `N[C@@H](C(=O)N[C@@H]1C(=O)N2C(C(=O)O)=C(Cl)CS[C@H]12)c1ccccc1` [CEFACLOR ANHYDROUS], the Ki in test [1] was 2300 µM. In turn, `O=C(O)c1cccc(C(=O)O)n1` [DIPICOLINIC ACID] showed an IC50 in test [2] of 1.13 µM. `CCN(CC)C(=S)SSC(=S)N(CC)CC` [DISULFIRAM]: the lowest concentration to inhibit growth in the test on Escherichia coli (MIC) was 16 µg/mL (≈ 54 µM). In test [2], this compound displayed an IC50 of 0.13 µM. As to `O=c1c2ccccc2[se]n1-c1ccccc1` [EBSELEN], the Ki in test [1] amounted to 0.38 µM. Turning to `COc1cc(/C=C/c2ccc(O)cc2)cc(OC)c1` [PTEROSTILBENE], the survival at 10 mg/kg in the test on Klebsiella pneumoniae was found to be 52%.
